Columns and labels:
[1] = system: Sphaerotheca fuliginea; assay: Example G4: in vivo preventive Sphaerotheca test (cucumbers); conditions: evaluated 7 days after inoculation
Procedure: Solvent: 24.5 parts by weight of acetone • 24.5 parts by weight of dimethylacetamide Emulsifier: 1 part by weight of alkylaryl polyglycol ether To produce a suitable preparation of active compound, 1 part by weight of active compound is mixed with the stated amounts of solvent and emulsifier, and the concentrate is diluted with water to the desired concentration. To test for preventive activity, young plants are sprayed with the preparation of active compound at the stated rate of application. After the spray coating has dried on, the plants are inoculated with an aqueous spore suspension of Sphaerotheca fuliginea.

[2] = system: Botrytis cinerea; assay: Example G1: in vivo preventive test on Botrytis cinerea (grey mould), comparison; conditions: rate of application 500 ppm; gherkin; evaluated 4 to 5 days after inoculation
Procedure: (§1) Young plants of gherkin were treated by spraying the active ingredient prepared as described above. Control plants were treated only with an aqueous solution of acetone/dimethyl sulfoxide/Tween®. After 24 hours, the plants were contaminated by spraying the leaves with an aqueous suspension of Botrytis cinerea spores.

[3] = system: Puccinia recondita; assay: Example G2: in vivo preventive test on Puccinia recondita (brown rust on wheat), comparison; conditions: evaluated 11 days after inoculation
Procedure: as §1, with “wheat” for “gherkin”, “Puccinia recondita” for “Botrytis cinerea”

[4] = system: Septoria tritici; assay: Example G7: in vivo 5 days preventive Septoria tritici test (wheat); conditions: inoculated 5 days after spraying, rate of application 500 ppm, evaluated 21 days after inoculation
Procedure: (§2) Solvent: 49 parts by weight of N,N-dimethylacetamide Emulsifier: 1 part by weight of alkylaryl polyglycol ether To produce a suitable preparation of active compound, 1 part by weight of active compound is mixed with the stated amounts of solvent and emulsifier, and the concentrate is diluted with water to the desired concentration. To test for preventive and long-lasting activity, young plants are sprayed with a preparation of active compound or active compound combination at the stated rate of application.

[5] = system: Septoria tritici; assay: Example G5: in vivo preventive Septoria tritici test (wheat); conditions: rate of application 500 ppm, evaluated 21 days after inoculation
Procedure: as §2, with “preventive” for “preventive and long-lasting”, “with the” for “with a”, “application. After the spray coating has been dried, the plants are sprayed with a spore suspension of Septoria tritici.” for “application.”

[6] = system: Septoria tritici; assay: Example G6: in vivo curative Septoria tritici test (wheat); conditions: sprayed 48 hours after the incubation, rate of application 500 ppm, evaluated 21 days after inoculation
[7] = system: Colletotrichum lindemuthianum; assay: Example G3: in vitro test for the calculation of the ED50-value with microorganisms, Colletotrichum lindemuthianum; assay type: cell-based; conditions: liquid culture, spore suspension, 4 to 7 days incubation, spectrometric measurement of mycelium growth
[8] = system: Pyricularia oryzae; assay type: cell-based; conditions: liquid culture, spore suspension, 4 to 7 days incubation, spectrometric measurement of mycelium growth
[9] = system: Fusarium culmorum; assay: Example G3: in vitro test for the calculation of the ED50-value with microorganisms, Fusarium culmorum; assay type: cell-based; conditions: liquid culture, spore suspension, 4 to 7 days incubation, spectrometric measurement of mycelium growth
Procedure: • Solvent: DMSO • Culture medium: 14.6 g anhydrous D-glucose (VWR), 7.1 g mycological peptone (Oxoid), 1.4 g granulated yeast extract (Merck), supplemented with water to a total volume of 1 liter • Inoculum: spore suspension
Fungicides were solubilized in DMSO and the solution used to prepare the required range of concentrations. The final concentration of DMSO used in the assay was <1% by weight.
A spore suspension was prepared and diluted to the desired spore density.
Fungicides were evaluated for their ability to inhibit spore germination and mycelium growth in liquid culture assay. The compounds were added in the desired concentration to the culture medium with spores. After 4 to 7 days incubation, fungi-toxicity of compounds was determined by spectrometric measurement of mycelium growth. Inhibition of fungal growth was determined by comparing the absorbance values in wells containing the fungicides with the absorbance in control wells without fungicides.

[10] = Log P by HPLC on reversed phase columns (EEC directive 79/831 Annex V.A8); assay type: physicochemical; conditions: method [a]: LC-UV, acidic range, 0.1% formic acid in water and acetonitrile
Procedure: If more than one Log P value is available within the same method, all the values are given and separated by “+”. Calibration was done with straight-chain alkan2-ones (with 3 to 16 carbon atoms) with known Log P values (measurement of Log P values using retention times with linear interpolation between successive alkanones). Lambda-max-values were determined using UV-spectra from 200 nm to 400 nm and the peak values of the chromatographic signals.

Question: With CSc1ccc(Oc2ccc(C(C)(O)Cn3cncn3)c(C(F)(F)F)c2)cc1 (stereo not shown) [Comparative compound, reference compound] as the compound, how does the Efficacy in % ([1]; rate of application 10 ppm) read?
Answer: The Efficacy in % was 28%.

Question: And the Efficacy in % ([1]; rate of application 100 ppm)?
Answer: Its Efficacy in % is 100%.

Question: And the Efficacy in % [2]?
Answer: The Efficacy in % was 69%.

Question: What about the Efficacy in % ([3]; rate of application 100 ppm) of the same compound?
Answer: The Efficacy in % was 25%.

Question: And the Efficacy in % ([3]; rate of application 500 ppm)?
Answer: The Efficacy in % was 88%.

Question: And the Efficacy in % [4]?
Answer: Its Efficacy in % is 29%.

Question: What about the Efficacy in % [5] of the same compound?
Answer: The Efficacy in % was 22%.

Question: And the Efficacy in % [6]?
Answer: The Efficacy in % was 57%.

Question: And the “Colletotrichum lindemuthianum ED50 value in ppm” value [7]?
Answer: Its value is 0.83 ppm.

Question: What about the “Pyricularia oryzae ED50 value in ppm” value [8] of the same compound?
Answer: Its value is 5.6 ppm.

Question: What about the “Fusarium culmorum ED50 value in ppm” value [9] of the same compound?
Answer: The value was 2.6 ppm.

Question: For O=Cc1ccc(Oc2ccc(C(O)Cn3cncn3)c(C(F)(F)F)n2)cc1 (stereo not shown) [Compound I-01, 4-[[5-[1-hydroxy-2-(1,2,4-triazol-1-yl)ethyl]-6-(trifluoromethyl)-2-pyridyl]oxy]benzaldehyde], which chromatographic logP ([10]; compounds of formula (I)) is on record?
Answer: Its chromatographic logP is 1.91.

Question: For CSc1ccc(Oc2ccc(C(O)Cn3cncn3)c(C(F)(F)F)n2)cc1 (stereo not shown) [Compound I-02, 1-[6-(4-methylsulfanylphenoxy)-2-(trifluoromethyl)-3-pyridyl]-2-(1,2,4-triazol-1-yl)ethanol], which chromatographic logP ([10]; compounds of formula (I)) is on record?
Answer: The chromatographic logP was 2.59.

Question: Which Efficacy in % ([1]; rate of application 10 ppm) does the source give for CSc1ccc(Oc2ccc(C(C)(O)Cn3cncn3)c(C(F)(F)F)n2)cc1 (stereo not shown) [Compound I-03, 2-[6-(4-methylsulfanylphenoxy)-2-(trifluoromethyl)-3-pyridyl]-1-(1,2,4-triazol-1-yl)propan-2-ol] here?
Answer: The Efficacy in % was 78%.

Question: What about the Efficacy in % ([1]; rate of application 100 ppm) of the same compound?
Answer: The Efficacy in % was 100%.

Question: What about the Efficacy in % [2] of the same compound?
Answer: Its Efficacy in % is 90%.

Question: What about the chromatographic logP ([10]; compounds of formula (I)) of the same compound?
Answer: The chromatographic logP was 2.74.

Question: What about the Efficacy in % ([3]; rate of application 100 ppm) of the same compound?
Answer: The Efficacy in % was 65%.

Question: And the Efficacy in % ([3]; rate of application 500 ppm)?
Answer: The Efficacy in % was 88%.

Question: What about the Efficacy in % [4] of the same compound?
Answer: The Efficacy in % was 71%.

Question: And the Efficacy in % [5]?
Answer: The Efficacy in % was 78%.

Question: And the Efficacy in % [6]?
Answer: Its Efficacy in % is 93%.

Question: And the “Colletotrichum lindemuthianum ED50 value in ppm” value [7]?
Answer: The value was 0.38 ppm.

Question: And the “Pyricularia oryzae ED50 value in ppm” value [8]?
Answer: The value was 1.7 ppm.

Question: And the “Fusarium culmorum ED50 value in ppm” value [9]?
Answer: Its value is 0.83 ppm.

Question: For ON=Cc1ccc(Oc2ccc(C(O)Cn3cncn3)c(C(F)(F)F)n2)cc1 (stereo not shown) [Compound I-04, 4-[[5-[1-hydroxy-2-(1,2,4-triazol-1-yl)ethyl]-6-(trifluoromethyl)-2-pyridyl]oxy]benzaldehyde Oxime], which chromatographic logP ([10]; compounds of formula (I)) is on record?
Answer: The chromatographic logP was 2.26.

Question: For CC(=O)c1ccc(Oc2ccc(C3OCCO3)cc2)nc1C(F)(F)F [Compound V-01, 1-[6-[4-(1,3-dioxolan-2-yl)phenoxy]-2-(trifluoromethyl)-3-pyridyl]ethanone], which chromatographic logP ([10]; compounds of formula (V)) is on record?
Answer: Its chromatographic logP is 2.98.

Question: Which chromatographic logP ([10]; compounds of formula (V)) does the source give for CSc1ccc(Oc2ccc(C(C)=O)c(C(F)(F)F)n2)cc1 [Compound V-02, 1-[6-(4-methylsulfanylphenoxy)-2-(trifluoromethyl)-3-pyridyl]ethanone] here?
Answer: The chromatographic logP was 3.7.

Question: With O=Cc1ccc(Oc2ccc(C(=O)Cn3cncn3)c(C(F)(F)F)n2)cc1 [VII-01, 4-[[5-[2-(1,2,4-triazol-1-yl)acetyl]-6-(trifluoromethyl)-2-pyridyl]oxy]benzaldehyde] as the compound, how does the chromatographic logP ([10]; compounds of formula (VII)) read?
Answer: The chromatographic logP was 2.12.

Question: For CSc1ccc(Oc2ccc(C(=O)Cn3cncn3)c(C(F)(F)F)n2)cc1 [VII-02, 1-[6-(4-methylsulfanylphenoxy)-2-(trifluoromethyl)-3-pyridyl]-2-(1,2,4-triazol-1-yl)ethanone], which chromatographic logP ([10]; compounds of formula (VII)) is on record?
Answer: The chromatographic logP was 2.92.

Question: For C#Cc1ccc(Oc2ccc(C(=O)Cn3cncn3)c(C(F)(F)F)n2)cc1 [VII-04, 1-[6-(4-ethynylphenoxy)-2-(trifluoromethyl)-3-pyridyl]-2-(1,2,4-triazol-1-yl)ethanone], which chromatographic logP ([10]; compounds of formula (VII)) is on record?
Answer: The chromatographic logP was 2.63.
